Reference: patent US20110306621A1, “ACYLGUANIDINE DERIVATIVES” (priority 2009, published 2011)
pKi: −log10 of the molar value.

Molecular target: T1, human 5-HT5A receptor (Homo sapiens, UniProt P47898)
T1 construct: expressed in transfected cells; membranes used
Assay: Test on a human 5-HT5A receptor binding inhibition ([3H]5-CT)
Settings: membrane from HEK293 cells for forced expression of human 5-HT5A receptor; Ki calculated from IC50 and Kd of [3H]5-CT (4.95 nM)
Description: The ORF (open reading frame; protein coding region) of a human 5-HT5A receptor (Genbank AF498985) was cloned from a human hippocampus cDNA library, and then inserted into a pCR2.1 vector (Invitrogen), and Escherichia coli containing the plasmid was cultured in a large amount. Next, the full-length cDNA sequence of the human 5-HT5A receptor was analyzed, and recombined into a pcDNA3.1 vector (Invitrogen) as an expression vector and cultured in a large amount. HEK293 established cells (ATCC) derived from the human fetal kidney were seeded, the expression plasmid (1 μg) obtained above were added thereto with LIPOFECTAMINE 2000 (Invitrogen; 2 μl), the gene was transfected into HEK293 cells, and the expression cells were screened with a drug-resistant marker, Geneticin (G418 sulfate 500 μg/ml; Kanto Chemical Co., Inc.). Thus prepared recombinant cells which expressed the gene were cultured in a medium containing D-MEM (Dulbecco's modified eagle medium, Sigma), 10% FCS (Fetal calf serum: fetal bovine serum), 1% Pc./Sm (Penicillin/Streptomycin, Invitrogen), and 500 μg/ml G418 for 3 days. These experimental operations followed a manual for gene operation experiment and an instruction appended in a reagent, and the like, such as a known method (Sambrook, J. et al, Molecular Cloning-A Laboratory Manual”, Cold Spring Harabor laboratory, NY, 1989).
HEK293 cells for forced expressions of a human 5-HT5A receptor were cultured in a F500 plate, and scraped with a scraper. After centrifugation, the precipitate was collected, and an incubation buffer (50 mM Tris (HCl) (pH 7.4), 10 mM MgSO4, and 0.5 mM EDTA (ethylenediamine tetraacetic acid)) was added thereto. After homogenization, it was further centrifuged, and the incubation buffer was added to the precipitate, followed by thoroughly suspending. The operation was repeated, and protein concentration was measured, thereby completing preparation of the membrane.
A solution of the compound to be tested and 100 μM 5-CT (5-carboxamidetriptamine) in DMSO was added to a 96-well plate at 2 μl/well, suspended in an incubation buffer, and a membrane from HEK293 cells for forced expressions of a human 5-HT5A receptor prepared at 200 μg/ml was added at 100 μl/well. After incubation at room temperature for 15 minutes, a [^3H]5-CT solution (2 nM [^3H]5-CT, incubation buffer) was added thereto at 100 μl/well.
Separately, 100 μl of the solution was distributed into a liquid scintillation vial, and 2 ml of Aquasol II (registered trademark) was added thereto, followed by stirring. Then, radioactivity was measured by a liquid scintillation counter. It was incubated at 37° C. for 60 minutes. The reaction mixture was sucked into 96-well GF/C filter plate that had been pre-treated with 0.2% polyethyleneimine, and washed six times with an ice-cooled, 50 mM Tris (pH 7.5) buffer. The GF/C filter plate was dried.
Microscint TMPS (registered trademark) was added thereto at 40 μl/well. Radioactivity remaining on the GF/C filter plate was measured by a top counter.
The [^3H]5-CT binding inhibiting activity by the compound to be tested in each experiment was determined as an IC50 value with a radioactivity upon addition of DMSO alone being 0% inhibition, and a radioactivity upon addition of 1 μM 5-CT being 100% inhibition. Separately, Ki values were calculated from the Kd value of the [^3H]5-CT determined from Scatchard analysis, by the following equation.
Ki=IC50 (1+Concentraion of ligand added/Kd (4.95 nM))

T1 sequence (P47898 whole entry): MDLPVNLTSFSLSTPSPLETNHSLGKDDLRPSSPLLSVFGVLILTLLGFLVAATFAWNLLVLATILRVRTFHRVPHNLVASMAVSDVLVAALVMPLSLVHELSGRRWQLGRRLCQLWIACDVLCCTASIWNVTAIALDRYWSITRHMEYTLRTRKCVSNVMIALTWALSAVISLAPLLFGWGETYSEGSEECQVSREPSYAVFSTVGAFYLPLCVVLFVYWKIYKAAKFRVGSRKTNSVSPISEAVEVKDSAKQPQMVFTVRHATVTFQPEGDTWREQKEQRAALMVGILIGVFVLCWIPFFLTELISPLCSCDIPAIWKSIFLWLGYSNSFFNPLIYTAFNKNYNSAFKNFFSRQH

Row | SMILES | pKi
1 | Cn1nccc1-c1cccc2ccc(C(=O)N=C(N)N)cc12 [Example 79] | 7.52 to 8.52
2 | COc1cc(F)c(-c2cccc3ccc(C(=O)N=C(N)N)cc23)c(F)c1 [Example 83] | 8.52 to 9.52
3 | NC(N)=NC(=O)c1ccc2cccc(-c3ccccc3)c2c1 [Example 87] | 8.52 to 9.52
4 | NC(N)=NC(=O)c1ccc2cccc(-c3ccc(F)cc3)c2c1 [Example 88] | 8.52 to 9.52
5 | NC(N)=NC(=O)c1ccc2cccc(-c3ccc(Cl)cc3)c2c1 [Example 89] | 8.52 to 9.52
6 | COc1ccc(-c2cccc3ccc(C(=O)N=C(N)N)cc23)cc1 [Example 90] | 8.52 to 9.52
7 | Cn1ncc(Cl)c1-c1cccc2ccc(C(=O)N=C(N)N)cc12 [Example 91] | 7.52 to 8.52
8 | NC(N)=NC(=O)c1ccc2cccc(-c3cccc4c3OCO4)c2c1 [Example 92] | 8.52 to 9.52
9 | NC(N)=NC(=O)c1ccc2cccc(-c3ccccc3OC(F)F)c2c1 [Example 93] | 7.52 to 8.52
10 | NC(N)=NC(=O)c1ccc2cccc(-c3ccc(F)cc3OC(F)F)c2c1 [Example 94] | 7.52 to 8.52
11 | NC(N)=NC(=O)c1ccc2cccc(-c3cccc4c3OCC4)c2c1 [Example 95] | 8.52 to 9.52
12 | COc1ccc(-c2cccc3ccc(C(=O)N=C(N)N)cc23)cn1 [Example 97] | 7.52 to 8.52
13 | COc1ccncc1-c1cccc2ccc(C(=O)N=C(N)N)cc12 [Example 98] | 6.52 to 7.52
14 | Cc1ccncc1-c1cccc2ccc(C(=O)N=C(N)N)cc12 [Example 100] | 7.52 to 8.52
15 | NC(N)=NC(=O)c1ccc2cccc(-c3ccccc3-c3ccccc3)c2c1 [Example 101] | 6.52 to 7.52
16 | NC(N)=NC(=O)c1ccc2cccc(-c3cccc4ccccc34)c2c1 [Example 102] | 7.52 to 8.52
17 | NC(N)=NC(=O)c1ccc2cccc(C3CC3)c2c1 [Example 103] | 7.52 to 8.52
18 | NC(N)=NC(=O)c1ccc2cccc(-c3c(F)cccc3OC(F)F)c2c1 [Example 107] | 8.52 to 9.52
19 | NC(N)=NC(=O)c1ccc2cccc(-c3ncccc3Cl)c2c1 [Example 108] | 7.52 to 8.52
20 | NC(N)=NC(=O)c1ccc2cccc(-c3cccc4ncccc34)c2c1 [Example 109] | 8.52 to 9.52
21 | NC(N)=NC(=O)c1ccc2ccc(Cl)c(-c3ccccc3F)c2c1 [Example 110] | 8.52 to 9.52
22 | COc1cncc(-c2cccc3ccc(C(=O)N=C(N)N)cc23)c1 [Example 111] | 6.52 to 7.52
23 | COc1cc(-c2cccc3ccc(C(=O)N=C(N)N)cc23)ccn1 [Example 112] | 7.52 to 8.52
24 | NC(N)=NC(=O)c1ccc2ccc(F)c(-c3ccncc3F)c2c1 [Example 113] | 8.52 to 9.52

Results, then the molecule that gave them:

Row | pKi | SMILES
25 | 8.52 to 9.52 | NC(N)=NC(=O)c1ccc2cccc(-c3cc(Cl)ccc3Cl)c2c1 [Example 76]
26 | 8.52 to 9.52 | NC(N)=NC(=O)c1ccc2cccc(-c3cccc(F)c3Cl)c2c1 [Example 77]
27 | 8.52 to 9.52 | NC(N)=NC(=O)c1ccc2cccc(-c3cc(F)ccc3Cl)c2c1 [Example 78]
28 | 8.52 to 9.52 | N#Cc1cccc(-c2cccc3ccc(C(=O)N=C(N)N)cc23)c1F [Example 80]
29 | 8.52 to 9.52 | N#Cc1ccc(F)c(-c2cccc3ccc(C(=O)N=C(N)N)cc23)c1 [Example 81]
30 | 8.52 to 9.52 | COc1ccc(-c2cccc3ccc(C(=O)N=C(N)N)cc23)c(F)c1 [Example 82]
31 | 7.52 to 8.52 | NC(N)=NC(=O)c1ccc2cccc(-c3cc(Cl)cnc3F)c2c1 [Example 84]
32 | 8.52 to 9.52 | N#Cc1c(Cl)cccc1-c1cccc2ccc(C(=O)N=C(N)N)cc12 [Example 85]
33 | 7.52 to 8.52 | Cc1ccc(-c2cccc3ccc(C(=O)N=C(N)N)cc23)c(F)n1 [Example 86]
34 | 8.52 to 9.52 | NC(N)=NC(=O)c1ccc2cccc(-c3cc(F)c(F)cc3F)c2c1 [Example 96]
35 | 7.52 to 8.52 | COc1cccc(-c2cccc3ccc(C(=O)N=C(N)N)cc23)c1C#N [Example 99]
36 | 8.52 to 9.52 | NC(N)=NC(=O)c1ccc2cccc(-c3c(O)cccc3F)c2c1 [Example 104]
37 | 8.52 to 9.52 | NC(N)=NC(=O)c1ccc2cccc(-c3cccc(F)c3O)c2c1 [Example 105]
38 | 8.52 to 9.52 | NC(N)=NC(=O)c1ccc2cccc(-c3cccc(O)c3F)c2c1 [Example 106]
